Test results reported in ChEMBL document CHEMBL1821563, “The discovery and synthesis of JNJ 31020028, a small molecule antagonist of the Neuropeptide Y Y₂ receptor” (Bioorg Med Chem Lett, 2011).
pIC50: −log10 of the molar value.

The compounds below were run against CYP2C9 (Homo sapiens, UniProt P11712) (assay: Inhibition of CYP2C9 at 10 uM).
CYP2C9, sequence (P11712 whole entry): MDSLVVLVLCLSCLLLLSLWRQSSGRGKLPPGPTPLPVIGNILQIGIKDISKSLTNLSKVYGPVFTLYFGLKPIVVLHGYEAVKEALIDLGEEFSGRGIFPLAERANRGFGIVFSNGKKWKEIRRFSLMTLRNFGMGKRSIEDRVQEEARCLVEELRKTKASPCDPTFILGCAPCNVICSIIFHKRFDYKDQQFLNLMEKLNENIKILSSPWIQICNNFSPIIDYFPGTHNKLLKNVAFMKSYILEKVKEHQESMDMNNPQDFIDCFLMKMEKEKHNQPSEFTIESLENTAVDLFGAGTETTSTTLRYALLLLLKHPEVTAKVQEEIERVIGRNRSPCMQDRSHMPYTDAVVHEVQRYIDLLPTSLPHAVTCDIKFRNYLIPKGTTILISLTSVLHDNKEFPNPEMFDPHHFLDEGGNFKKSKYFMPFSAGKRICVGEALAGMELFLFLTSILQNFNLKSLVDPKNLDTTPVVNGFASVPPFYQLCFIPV
Format: ADME
For CCC(CC)C(=O)Nc1ccc(N2CCN(C(C(=O)N(CC)CC)c3ccccc3)CC2)c(C#N)c1 (racemic; 34), the inhibition at 10 µM was over 75%.

These compounds were tested against T1, Neuropeptide Y receptor type 2 (Homo sapiens, UniProt P49146) (assay: Displacement of [125I]PYY from human NPY Y2 receptor expressed endogenously in KAN-Ts cells by scintillation counting).
T1 sequence (P49146 whole entry): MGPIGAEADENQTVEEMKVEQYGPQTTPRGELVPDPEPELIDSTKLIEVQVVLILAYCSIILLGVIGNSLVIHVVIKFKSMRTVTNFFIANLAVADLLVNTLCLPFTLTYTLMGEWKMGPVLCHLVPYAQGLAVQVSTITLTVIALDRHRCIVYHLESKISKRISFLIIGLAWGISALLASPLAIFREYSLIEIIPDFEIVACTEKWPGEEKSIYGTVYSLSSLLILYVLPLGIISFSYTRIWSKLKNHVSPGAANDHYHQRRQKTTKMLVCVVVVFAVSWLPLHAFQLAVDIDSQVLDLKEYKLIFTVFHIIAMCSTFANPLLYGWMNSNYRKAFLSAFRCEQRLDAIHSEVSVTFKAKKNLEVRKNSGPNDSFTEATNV
Format: cell-based
In the case of CCOc1ccc(NC(=S)N2CCC(C(O)(c3ccccc3)c3ccccc3)CC2)cc1, the pIC50 was 6.70.
COc1cccnc1C(=O)N1CCN(c2ccc(NC(C)(C)c3ccccc3)cc2Cl)CC1 showed a pIC50 of 7.60.
COC(=O)C(c1ccccc1)N1CCN(c2ccc(NC(=O)c3ccccc3-c3ccncc3)cc2)CC1 (stereo not drawn) showed a pIC50 of 6.62.
In the case of COC(=O)C(c1ccccc1)N1CCN(c2ccc(NC(=O)c3ccccc3-c3ccncc3)cc2F)CC1 (stereo not drawn), the pIC50 was 7.43.
For COC(=O)C(c1ccccc1)N1CCN(c2ccc(NC(=O)c3ccccc3-c3ccccc3)cc2)CC1 (stereo not drawn), the pIC50 was 6.28.
In the case of COC(=O)C(c1ccccc1)N1CCN(c2ccc(NC(=O)c3ccccc3-c3ccccc3)cc2F)CC1 (stereo not drawn), the pIC50 was 7.28.
Work on COC(=O)C(c1ccccc1)N1CCN(c2ccc(NC(=O)c3ccccc3-c3ccccc3)cc2C#N)CC1 (stereo not drawn) yielded a pIC50 of 7.60.
Compound COC(=O)C(c1ccccc1)N1CCN(c2ccc(NC(=O)c3ccccc3-c3ccccc3)cc2C)CC1 (stereo not drawn) has a pIC50 of 7.00.
Compound COC(=O)C(c1ccccc1)N1CCN(c2ccc(NC(=O)c3ccccc3-c3cccnc3)cc2)CC1 (stereo not drawn) has a pIC50 of 6.66.
With COC(=O)C(c1ccccc1)N1CCN(c2ccc(NC(=O)c3ccccc3-c3cccnc3)cc2F)CC1 (stereo not drawn) the pIC50 was 7.40.
With CCC(CC)C(=O)Nc1ccc(N2CCN(C(C(=O)OC)c3ccccc3)CC2)c(F)c1 (stereo not drawn) the pIC50 was 6.78.
With CCNC(=O)C(c1ccccc1)N1CCN(c2ccc(NC(=O)c3ccccc3-c3ccccc3)cc2F)CC1 (stereo not drawn) the pIC50 was 7.46.
Work on CCNC(=O)C(c1ccccc1)N1CCN(c2ccc(NC(=O)c3ccccc3-c3ccccc3)cc2C#N)CC1 (stereo not drawn) yielded a pIC50 of 7.96.
Compound CCNC(=O)C(c1ccccc1)N1CCN(c2ccc(NC(=O)c3ccccc3-c3cccnc3)cc2F)CC1 (stereo not drawn) has a pIC50 of 7.38.
Compound CCNC(=O)C(c1ccccc1)N1CCN(c2ccc(NC(=O)c3ccccc3-c3cccnc3)cc2C#N)CC1 (stereo not drawn) has a pIC50 of 7.52.
In the case of CCNC(=O)C(c1ccccc1)N1CCN(c2ccc(NC(=O)C(CC)CC)cc2F)CC1 (stereo not drawn), the pIC50 was 6.43.
Compound CCNC(=O)C(c1ccccc1)N1CCN(c2ccc(NC(=O)C(CC)CC)cc2C#N)CC1 (stereo not drawn) has a pIC50 of 6.82.
With CCN(CC)C(=O)[C@@H](c1ccccc1)N1CCN(c2ccc(NC(=O)c3ccccc3-c3cccnc3)cc2F)CC1 the pIC50 was 8.05.
CCN(CC)C(=O)[C@H](c1ccccc1)N1CCN(c2ccc(NC(=O)c3ccccc3-c3cccnc3)cc2F)CC1 showed a pIC50 of 7.85.
CCN(CC)C(=O)C(c1ccccc1)N1CCN(c2ccc(NC(=O)c3ccccc3-c3cccnc3)cc2F)CC1 (racemic) gave a pIC50 of 8.22.
CCN(CC)C(=O)C(c1ccccc1)N1CCN(c2ccc(NC(=O)c3ccccc3-c3ccccc3)cc2F)CC1 (racemic) gave a pIC50 of 8.00.
Work on CCC(CC)C(=O)Nc1ccc(N2CCN(C(C(=O)N(CC)CC)c3ccccc3)CC2)c(F)c1 (racemic) yielded a pIC50 of 7.30.
Compound CCN(CC)C(=O)C(c1ccccc1)N1CCN(c2ccc(NC(=O)c3ccccc3-c3ccccc3)cc2C#N)CC1 (racemic; 28) has a pIC50 of 7.43.
With CCN(CC)C(=O)C(c1ccccc1)N1CCN(c2ccc(NC(=O)c3ccccc3-c3ccccc3)cc2C#N)CC1 (racemic; 30) the pIC50 was 8.10.
For CCC(CC)C(=O)Nc1ccc(N2CCN(C(C(=O)N(CC)CC)c3ccccc3)CC2)c(C#N)c1 (racemic; 32), the pIC50 was 6.70.
CCC(CC)C(=O)Nc1ccc(N2CCN(C(C(=O)N(CC)CC)c3ccccc3)CC2)c(C#N)c1 (racemic; 34) showed a pIC50 of 7.89.

The compounds below were run against CYP2D6 (Homo sapiens, UniProt P10635) (assay: Inhibition of CYP2D6 at 10 uM).
CYP2D6, sequence (P10635 whole entry): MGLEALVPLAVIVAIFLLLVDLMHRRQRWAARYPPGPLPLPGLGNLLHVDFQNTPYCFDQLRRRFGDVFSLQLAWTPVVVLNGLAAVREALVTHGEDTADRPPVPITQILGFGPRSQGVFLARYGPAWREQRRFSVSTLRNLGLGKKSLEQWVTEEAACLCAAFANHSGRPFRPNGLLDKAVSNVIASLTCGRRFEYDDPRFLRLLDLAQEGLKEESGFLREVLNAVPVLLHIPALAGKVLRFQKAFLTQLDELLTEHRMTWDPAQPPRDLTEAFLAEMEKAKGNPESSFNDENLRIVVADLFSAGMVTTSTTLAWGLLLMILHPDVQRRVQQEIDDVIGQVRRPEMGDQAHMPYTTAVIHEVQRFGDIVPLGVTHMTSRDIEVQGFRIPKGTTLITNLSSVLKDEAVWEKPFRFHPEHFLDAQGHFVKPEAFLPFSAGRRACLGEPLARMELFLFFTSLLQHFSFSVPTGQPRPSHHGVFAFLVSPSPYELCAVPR
Format: ADME
CCC(CC)C(=O)Nc1ccc(N2CCN(C(C(=O)N(CC)CC)c3ccccc3)CC2)c(C#N)c1 (racemic; 34) showed an inhibition at 10 µM of over 75%.
